Experimental data as given in patent US8198333B2, “Cytostatic drug composition” (Geopharma Produktions GmbH, priority 2004, dated 2012).

What was measured:
AsPc-1 = assay: Cytostatic activity, EZ4U test, pancreas carcinoma cell line AsPc-1; assay type: cell-based; settings: three days
Procedure: (§1) Cell lines of a colon carcinoma and a pancreas carcinoma, such as Capan-1, DLD-1, HT 29, HCT-8, MLA-PA-CA2, PANCI, BXPC-3, ASPC-1, and HT-29, were examined. The tested cancer cell lines were stored in liquid nitrogen. After defrosting, the cancer cells were cultivated in culture flasks with RPMI-1640+glutamine medium (Gibco® No. 5240025) at 37° C./5% CO2 atmosphere for up to 14 days so that a monolayer of cells was able to form. Thereupon, the cells were harvested with trypsin+EDTA (Gibco® No. 15400-054) and washed twice with an RPMI-medium.
(§2) Apart from poly-[2-(2-ethoxyethoxyethyl)guanidinium hydrochloride], the chemotherapeutic agents cisplatin, epirubicin, mitomycin C and 5-fluorouracil were tested by way of comparison. Therefor, the compounds were at first dissolved according to the respective instructions of the manufacturer and were then stored as a stock solution in aliquots of 1 ml each (concentration of drug substance: 1000 μg/ml) in liquid nitrogen at −180° C. The dissolved substances were used on the very same day.
(§3) In order to determine the cytotoxic activity of the substances, the cancer cells were transferred from the culture flasks with an RPMI-washed suspension at a concentration of 20,000 cells in 200 μl onto microtiter plates. In the presence of varying concentrations of the test substances, the cancer cells were subsequently incubated for three days at a temperature of 37° C. and in an atmosphere of 5% CO2. For the poly-[2-(2-ethoxyethoxyethyl)guanidinium hydrochloride], concentrations of 0.12 to 500 μg/ml (factor 2 dilutions) were used in all test arrangements. After three days of incubation, the evaluation was carried out by means of the nonradioactive cell proliferation and cytotoxicity test EZ4U (Biomedica No. BI-5000 10×96 determinations). After three hours of incubation with EZ4U, the evaluation was carried out photometrically in percent at a wavelength of 49/630 nm in a slidephotometer (extinction of the test sample divided by extinction of the control-sample blank value).

BxPc-3 = assay: Cytostatic activity, EZ4U test, pancreas carcinoma cell line BxPc-3; assay type: cell-based; settings: three days
Procedure: as §1, §2, §3

Capan-1 = assay: Cytostatic activity, EZ4U test, pancreas carcinoma cell line Capan-1; assay type: cell-based; settings: three days
Procedure: as §1, §2, §3

Panc-1 = assay: Cytostatic activity, EZ4U test, pancreas carcinoma cell line Panc-1; assay type: cell-based; settings: three days
Procedure: as §1, §2, §3

HAT-29 = assay: Cytostatic activity, EZ4U cell proliferation and cytotoxicity test, colon carcinoma cell line HAT-29; assay type: cell-based; settings: three days
Procedure: as §1, §2, §3

HCT-8 = assay: Cytostatic activity, EZ4U test, colon carcinoma cell line HCT-8; assay type: cell-based; settings: three days
Procedure: as §1, §2, §3

DLD-1 = assay: Cytostatic activity, EZ4U test, colon carcinoma cell line DLD-1; assay type: cell-based; settings: three days
Procedure: as §1, §2, §3

HCT-15 = assay: Cytostatic activity, EZ4U test, colon carcinoma cell line HCT-15; assay type: cell-based; settings: three days
Procedure: as §1, §2, §3

Colon 320DM = assay: Cytostatic activity, EZ4U test, colon carcinoma cell line Colon 320DM; assay type: cell-based; settings: three days
Procedure: as §1, §2, §3

Colon 205 = assay: Cytostatic activity, EZ4U test, colon carcinoma cell line Colon 205; assay type: cell-based; settings: three days
Procedure: as §1, §2, §3

MIA PaCa-2 = assay: Cytostatic activity, EZ4U test, pancreas carcinoma cell line MIA PaCa-2; assay type: cell-based; settings: three days
Procedure: as §1, §2, §3

[1] = test system: lymphocytes of healthy test persons; assay: Vitality of lymphocytes, trypan blue; assay type: cell-based, human; settings: for Vitality of lymphocytes in %: 24 hours
Procedure: In addition, lymphocytes of healthy test persons were examined. In doing so, a total amount of 100 ml blood was drawn into EDTA test tubes. The lymphocytes were isolated from the full blood by means of a Mono-Poly Resolving Medium/Ficol-Hypaque gradient, were washed three times with an HBSS buffer and, prepared in this manner, they were added to the test stock.
as §2
The vitality of the lymphocytes was determined in a suspension of 1.2×10^7/ml at varying concentrations of the test substances. In the presence of the test substances, the cell suspensions were incubated for 24 hours at 37° C. and in an atmosphere of 5% CO2 and were then dyed with trypan blue. After dyeing, the lymphocytes were applied onto the counting chamber and their vitality was evaluated in percent.

[2] = assay type: in vivo; settings: intravenous or intraperitoneal, up to 15 mg/kg body weight
Procedure: After an (intravenous or intraperitoneal) systemic administration of poly-[2-(2-ethoxyethoxyethyl)guanidinium hydrochloride] in amounts of up to 15 mg/kg body weight, serum concentrations of up to 100 μg/ml are measured in the rat's blood after two hours, whereby, at the same time, the tolerance is good. Therefore, poly-[2-(2-ethoxyethoxyethyl)guanidinium hydrochloride] can be used as a cytostatic drug.

cancer cells = assay: Cytostatic activity in cancer cell lines (colon and pancreas carcinoma), summary; assay type: cell-based; settings: colon carcinoma (HT-29, HCT-8, DLD-1) and pancreas carcinoma (ASPC-1, BXPC-3, CAPAN-1, PANC-1) cell lines
Procedure: as §1
as §3, with “After three hours of incubation with EZ4U, the evaluation was carried out photometrically in percent at a wavelength of 49/630 nm in a slidephotometer (extinction of the test sample divided by extinction of the control-sample blank value).” left out

O=c1[nH]cc(F)c(=O)[nH]1 [5-Fluorouracil]
vitality in % (AsPc-1; 0.6 μg/ml): 92% | vitality in % (AsPc-1; 6 μg/ml): 88% | vitality in % (AsPc-1; 60 μg/ml): 71% | vitality in % (BxPc-3; 0.6 μg/ml): 86% | vitality in % (BxPc-3; 6 μg/ml): 79% | vitality in % (BxPc-3; 60 μg/ml): 67% | vitality in % (Capan-1; 0.6 μg/ml): 46% | vitality in % (Capan-1; 6 μg/ml): 38% | vitality in % (Capan-1; 60 μg/ml): 23% | vitality in % (Panc-1; 0.6 μg/ml): 80% | vitality in % (Panc-1; 6 μg/ml): 77% | vitality in % (Panc-1; 60 μg/ml): 62%

N.N.[Cl][Pt][Cl] [Cisplatin]
vitality in % (AsPc-1; 0.025 μg/ml): 85% | vitality in % (AsPc-1; 0.25 μg/ml): 89% | vitality in % (AsPc-1; 2.5 μg/ml): 53% | vitality in % (BxPc-3; 0.025 μg/ml): 87% | vitality in % (BxPc-3; 0.25 μg/ml): 65% | vitality in % (BxPc-3; 2.5 μg/ml): 93% | vitality in % (Capan-1; 0.025 μg/ml): 94% | vitality in % (Capan-1; 0.25 μg/ml): 54% | vitality in % (Capan-1; 2.5 μg/ml): 36%

COc1cccc2c1C(=O)c1c(O)c3c(c(O)c1C2=O)C[C@@](O)(C(=O)CO)C[C@@H]3O[C@H]1C[C@H](N)[C@@H](O)[C@H](C)O1 [Epirubicin]
vitality in % (AsPc-1; 0.12 μg/ml): 105% | vitality in % (AsPc-1; 1.19 μg/ml): 59% | vitality in % (AsPc-1; 11.9 μg/ml): 55% | vitality in % (BxPc-3; 0.12 μg/ml): 76% | vitality in % (BxPc-3; 1.19 μg/ml): 55% | vitality in % (BxPc-3; 11.9 μg/ml): 62% | vitality in % (Capan-1; 0.12 μg/ml): 50% | vitality in % (Capan-1; 1.19 μg/ml): 35% | vitality in % (Capan-1; 11.9 μg/ml): 54% | vitality in % (Panc-1; 0.12 μg/ml): 111% | vitality in % (Panc-1; 1.19 μg/ml): 43% | vitality in % (Panc-1; 11.9 μg/ml): 61%

CO[C@@]12[C@H](COC(N)=O)C3=C(C(=O)C(C)=C(N)C3=O)N1C[C@@H]1N[C@@H]12 [Mitomycin C]
vitality in % (AsPc-1; 0.015 μg/ml): 98% | vitality in % (AsPc-1; 0.15 μg/ml): 89% | vitality in % (AsPc-1; 1.5 μg/ml): 65% | vitality in % (BxPc-3; 0.015 μg/ml): 100% | vitality in % (BxPc-3; 0.15 μg/ml): 91% | vitality in % (BxPc-3; 1.5 μg/ml): 47% | vitality in % (Capan-1; 0.015 μg/ml): 59% | vitality in % (Capan-1; 0.15 μg/ml): 30% | vitality in % (Capan-1; 1.5 μg/ml): 22% | vitality in % (Panc-1; 0.015 μg/ml): 104% | vitality in % (Panc-1; 0.15 μg/ml): 103% | vitality in % (Panc-1; 1.5 μg/ml): 55%

poly-[2-(2-ethoxyethoxyethyl)guanidinium hydrochloride]
vitality in % (HAT-29; 0.125 μg/ml): 76% | vitality in % (HAT-29; 0.25 μg/ml): 85% | vitality in % (HAT-29; 0.5 μg/ml): 98% | vitality in % (HAT-29; 1 μg/ml): 88% | vitality in % (HAT-29; 2 μg/ml): 77% | vitality in % (HAT-29; 4 μg/ml): 76% | vitality in % (HAT-29; 8 μg/ml): 47% | vitality in % (HAT-29; 16 μg/ml): 21% | vitality in % (HAT-29; 32 μg/ml): 13% | vitality in % (HAT-29; 64 μg/ml): 11% | vitality in % (HCT-8; 0.125 μg/ml): 88% | vitality in % (HCT-8; 0.25 μg/ml): 70% | vitality in % (HCT-8; 0.5 μg/ml): 79% | vitality in % (HCT-8; 1 μg/ml): 85% | vitality in % (HCT-8; 2 μg/ml): 90% | vitality in % (HCT-8; 4 μg/ml): 114% | vitality in % (HCT-8; 8 μg/ml): 91% | vitality in % (HCT-8; 16 μg/ml): 34% | vitality in % (HCT-8; 32 μg/ml): 15% | vitality in % (HCT-8; 64 μg/ml): 11% | vitality in % (DLD-1; 2 μg/ml): 103% | vitality in % (DLD-1; 4 μg/ml): 86% | vitality in % (DLD-1; 8 μg/ml): 49% | vitality in % (DLD-1; 16 μg/ml): 26% | vitality in % (DLD-1; 32 μg/ml): 17% | vitality in % (DLD-1; 64 μg/ml): 15% | vitality in % (HCT-15; 2 μg/ml): 81% | vitality in % (HCT-15; 4 μg/ml): 81% | vitality in % (HCT-15; 8 μg/ml): 69% | vitality in % (HCT-15; 16 μg/ml): 25% | vitality in % (HCT-15; 32 μg/ml): 18% | vitality in % (HCT-15; 64 μg/ml): 16% | vitality in % (Colon 320DM; 2 μg/ml): 79% | vitality in % (Colon 320DM; 4 μg/ml): 37% | vitality in % (Colon 320DM; 8 μg/ml): 26% | vitality in % (Colon 320DM; 16 μg/ml): 24% | vitality in % (Colon 320DM; 32 μg/ml): 22% | vitality in % (Colon 320DM; 64 μg/ml): 21% | vitality in % (Colon 205; 2 μg/ml): 70% | vitality in % (Colon 205; 4 μg/ml): 59% | vitality in % (Colon 205; 8 μg/ml): 27% | vitality in % (Colon 205; 16 μg/ml): 16% | vitality in % (Colon 205; 32 μg/ml): 16% | vitality in % (Colon 205; 64 μg/ml): 15% | vitality in % (AsPc-1; 2 μg/ml): 92% | vitality in % (AsPc-1; 4 μg/ml): 70% | vitality in % (AsPc-1; 8 μg/ml): 50% | vitality in % (AsPc-1; 16 μg/ml): 15% | vitality in % (AsPc-1; 32 μg/ml): 12% | vitality in % (AsPc-1; 64 μg/ml): 13% | vitality in % (BxPc-3; 2 μg/ml): 63% | vitality in % (BxPc-3; 4 μg/ml): 74% | vitality in % (BxPc-3; 8 μg/ml): 44% | vitality in % (BxPc-3; 16 μg/ml): 18% | vitality in % (BxPc-3; 32 μg/ml): 11% | vitality in % (BxPc-3; 64 μg/ml): 9% | vitality in % (Capan-1; 2 μg/ml): 115% | vitality in % (Capan-1; 4 μg/ml): 111% | vitality in % (Capan-1; 8 μg/ml): 95% | vitality in % (Capan-1; 16 μg/ml): 114% | vitality in % (Capan-1; 32 μg/ml): 79% | vitality in % (Capan-1; 64 μg/ml): 46% | vitality in % (Panc-1; 2 μg/ml): 88% | vitality in % (Panc-1; 4 μg/ml): 90% | vitality in % (Panc-1; 8 μg/ml): 55% | vitality in % (Panc-1; 16 μg/ml): 30% | vitality in % (Panc-1; 32 μg/ml): 16% | vitality in % (Panc-1; 64 μg/ml): 11% | vitality in % (MIA PaCa-2; 2 μg/ml): 106% | vitality in % (MIA PaCa-2; 4 μg/ml): 97% | vitality in % (MIA PaCa-2; 8 μg/ml): 58% | vitality in % (MIA PaCa-2; 16 μg/ml): 16% | vitality in % (MIA PaCa-2; 32 μg/ml): 12% | vitality in % (MIA PaCa-2; 64 μg/ml): 11% | Vitality of lymphocytes in % ([1]; 12.5 μg/ml): 98% | Vitality of lymphocytes in % ([1]; 25 μg/ml): 100% | Vitality of lymphocytes in % ([1]; 50 μg/ml): 96% | Vitality of lymphocytes in % ([1]; 100 μg/ml): 98% | Vitality of lymphocytes in % ([1]; 250 μg/ml): 30% | Vitality of lymphocytes in % ([1]; 500 μg/ml): 16% | Vitality of lymphocytes in % ([1]; 1000 μg/ml): 1% | concentrations from which cytostatic activity has been observed ([1]; healthy endogenous cells such as lymphocytes (table 4)): ≥ 100 µg/mL | serum concentrations in the rat's blood ([2]; after two hours): up to 100 μg/ml | tolerance ([2]; rat): good | cytostatic activity (cancer cells): excellent cytostatic activity
